One experiment has as its target T1, human IGF-1R (Homo sapiens, UniProt P08069).
T1 construct: human IGF-1R (amino acids 964-1370) is expressed as a fusion protein; made in house; host or cells: High Five insect cells (Invitrogen)
Kind of experiment: Insulin-like growth factor-1 receptor (IGF-1R)-kinase assay (DELFIA). In kind it is biochemical. The settings on record: inhibition of IGF-1R-kinase activity. The protocol: Insulin-Like Growth Factor-1 Receptor (IGF-1R)-Kinase Assay
The kinase activity is measured by DELFIA® assay (dissociation-enhanced lanthanide fluorescence immunoassay, Perkin Elmer). The cytoplasmic kinase domain of human IGF-1R (amino acids 964-1370) is expressed as a fusion protein with a glutathione-S-transferase tag (IGF-1R-GST) in High Five™ Cells (Invitrogen). Enzyme activity is measured in the presence of substances and a control substance. Poly-glutamate-tyrosine peptide (pEY, Sigma Aldrich) and biotinylated pEY (bio-pEY) are used as reaction substrates.
10 μL of substance in 25% DMSO are mixed with 30 μL of IGF-1R-GST solution (67 mM HEPES pH 7.4, 15 μg/mL pEY, 1.7 μg/mL bio-pEY, 13.3 mM MgCl2, 3.3 mM dithiothreitol, 0.0033% Brij 35, 2 ng IGF-1R-GST) in 96-well plates. The reactions are started with 10 μL of a 750 μM ATP solution. After 40 min at RT the reactions are stopped with 50 μL of stop solution (250 mM EDTA, 20 mM HEPES pH 7.4). 90 μL from each reaction are transferred onto streptavidin-coated 96-well plates. After 120 min incubation at RT the plates are washed three times with 200 μL phosphate-buffered saline (PBS) per well. The plates are incubated for 60 min with 100 μL of europium-coupled antibody against phospho-tyrosine (diluted 1/2000 in Perkin Elmer DELFIA assay buffer) per well. The plates are washed three times with 200 μL per well of DELFIA washing buffer (Perkin Elmer). 100 μL DELFIA Enhancement Solution (Perkin Elmer) is added to each well, and the plates are incubated for 10 min. The fluorescence signal is measured with a Wallac Victor TRF Reader. IC50 values for the inhibition of the IGF-1R-kinase activity are calculated using the programme GraphPad (Version 3.0).

Experiment [1] deals with TC-71 (EWING'S sarcoma) cells. Kind of experiment: Cell proliferation assay TC-71 (Alamar Blue). To be noted: anti-proliferative effect, TC-71 cells, 72 h; read-out: TC71 EC50. It is filed as cell-based. The protocol: (§1) Cell Proliferation Assays
(§2) Compounds were tested for their anti-proliferative effects in the TC-71 (EWING'S sarcoma) and HCT 116 (colorectal carcinoma) cancer cell lines in vitro. Published scientific data has described that interference with the IGF-1R signaling pathway reduces the proliferation of TC-71 cells (Manara et al, 2007). Therefore TC-71 cells served as a positive control cell line for monitoring the activity of compounds against IGF-1R-mediated cell proliferation. […] Therefore the HCT 116 cell line served as a negative control.
(§3) 2000 TC-71 cells or 1000 HCT 116 cells were seeded per well in 180 μL IMDM+10% foetal calf serum (FCS)+penicillin/streptomycin into 96-well microtitre plates. The plates were placed in a cell culture incubator (37° C. in a humidified atmosphere of […]/5% CO2) overnight. The following day, serial dilutions of compounds, prepared in duplicates, were transferred onto the cell layers (controls without compound). The cells were cultivated for a further 72 h in the cell culture incubator. 20 μL of Alamar Blue™ (Serotec Ltd, Dusseldorf, Germany) was added to each well and the plates incubated for 7 h in the cell culture incubator. Fluorescence (extinction wavelength of 544 nm and emission at 590 nm) was then measured and the normalized data fitted by iterative calculation with a sigmoidal curve analysis program (Graph Pad Prism) with a variable Hill slope to determine the EC50 values.

The test system of experiment [2] is HCT 116 (colorectal carcinoma) cells. The experiment can be described thus: Cell proliferation assay HCT 116 (Alamar Blue). In kind it is cell-based. To be noted: Homo sapiens; anti-proliferative effect, HCT 116 cells (negative control line), 72 h. The procedure: as §1, §2, §3

Some results are limits rather than exact numbers.

T1 sequence (P08069 964-1367 limits assumed): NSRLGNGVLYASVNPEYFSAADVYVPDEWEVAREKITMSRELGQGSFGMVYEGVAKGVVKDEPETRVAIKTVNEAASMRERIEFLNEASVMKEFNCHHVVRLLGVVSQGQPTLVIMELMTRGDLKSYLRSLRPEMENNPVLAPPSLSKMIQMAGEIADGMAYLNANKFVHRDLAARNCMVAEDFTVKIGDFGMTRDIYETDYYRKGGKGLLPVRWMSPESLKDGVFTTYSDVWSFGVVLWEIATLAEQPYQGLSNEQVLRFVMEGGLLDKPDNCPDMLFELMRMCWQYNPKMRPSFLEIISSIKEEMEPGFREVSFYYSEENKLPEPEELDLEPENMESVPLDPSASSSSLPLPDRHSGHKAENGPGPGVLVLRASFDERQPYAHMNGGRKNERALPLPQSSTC

On human IGF-1R, `C[C@@H]1Cc2nn(C)c(-c3ccccc3)c2-c2nc(Nc3ccn(CCN4CCN(CCO)CC4)n3)ncc21` [Compound I-10] registered a 50% inhibitory concentration (IC50) of 2.2 nM. For the same molecule, the figures for the 50% effective concentration (EC50) in experiment [1] and in experiment [2] were 5.93 nM and more than 2500 nM, respectively.
On to `C[C@@H]1Cc2nn(C)c(-c3ccccc3)c2-c2nc(Nc3ccn(CCN4CCN(CC(C)(C)O)C(=O)C4)n3)ncc21` [Compound I-5], for which the IC50 on human IGF-1R came to 4.8 nM. Besides, the EC50 in experiment [1] is 4 nM; in experiment [2] it was more than 2500 nM.
The molecule `C[C@@H]1Cc2nn(C)c(-c3ccccc3)c2-c2nc(Nc3ccn(CCN4CCN(CC(=O)OC5CCOC5)CC4)n3)ncc21` (stereo partly drawn) [Compound I-6] came in with a half-maximal inhibitory concentration (IC50) on human IGF-1R of 1.1 nM. Moreover, the 50% effective concentration (EC50) was 5 nM in experiment [1] and more than 2500 nM in experiment [2].
On human IGF-1R, `CC(C(=O)OC[C@H]1CCCN1)N1CCN(CCn2ccc(Nc3ncc4c(n3)-c3c(nn(C)c3-c3ccccc3)C[C@H]4C)n2)CC1` (stereo partly drawn) [Compound I-4] registered a 50% inhibitory concentration (IC50) of 1.5 nM. Further, the EC50 is 6.82 nM in experiment [1] and more than 2500 nM in experiment [2].

Source of the values: US10414769B2, “5,8-dimethyl-9-phenyl-5,8-dihydro-6H-pyrazolo[3,4-h]quinazolin-2-yl)-(1H-pyrazol-3-yl)-amines as IGF-1R/IR inhibitors” (Boehringer Ingelheim International GmbH, priority 2015, dated 2019).
